# Columns and labels:
# [1] = target: Beta-2 adrenergic receptor (Bos taurus) (UniProt Q28044); test: Beta-2 adrenergic receptor intrinsic symphaticomimetic activity relative to salbutamol; format: functional
# [2] = log(1/ISA) value of the compound
# [3] = target: Beta-2 adrenergic receptor (Bos taurus) (UniProt Q28044); test: Intrinsic activity was measured as concentration of beta-2 adrenergic receptor agonist required for cAMP production; format: functional
# [4] = target: Beta-2 adrenergic receptor (Bos taurus) (UniProt Q28044); test: Concentration required for maximal (95-100%) beta-2 adrenergic receptor occupancy
# [5] = target: Beta-2 adrenergic receptor (Bos taurus, UniProt Q28044); test: Apparent binding affinity constant to beta-2 adrenergic receptor determined using [3H]DHA; details: read-out: KD app
# Sequence of Beta-2 adrenergic receptor (Q28044 whole entry): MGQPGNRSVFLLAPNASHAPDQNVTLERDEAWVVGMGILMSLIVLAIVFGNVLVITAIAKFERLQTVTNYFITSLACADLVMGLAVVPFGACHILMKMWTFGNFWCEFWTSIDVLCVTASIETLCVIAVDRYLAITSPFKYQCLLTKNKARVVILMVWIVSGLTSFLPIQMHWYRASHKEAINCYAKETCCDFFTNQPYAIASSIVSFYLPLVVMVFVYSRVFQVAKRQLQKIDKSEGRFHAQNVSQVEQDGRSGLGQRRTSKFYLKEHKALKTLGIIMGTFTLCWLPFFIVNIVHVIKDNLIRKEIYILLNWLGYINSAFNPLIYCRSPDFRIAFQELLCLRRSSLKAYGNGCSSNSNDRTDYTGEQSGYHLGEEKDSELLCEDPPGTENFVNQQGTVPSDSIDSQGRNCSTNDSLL
# Sequence of Beta-2 adrenergic receptor (Bos taurus) (Q28044 whole entry, looked up): as the sequence (Q28044 whole entry) above
SMILES,ISA [1],Log 1/ISA [2],cAMP production (pM min-1 mg-1) [3],Concentration [4] [µM],Kd [5] [nM]
CC(C)(C)NCC(O)c1ccccc1Cl (stereo not given) [TULOBUTEROL],0.5,0.3,61,10,
CC(C)(C)NCC(O)c1ccc(O)cc1 (stereo not given),0.8,0.1,97,100,1350
CC(C)(C)NCC(O)c1ccc(O)c(O)c1 (stereo not given) [COLTEROL],0.68,0.17,83,,670
CC(C)(C)NCC(O)c1cc(Cl)c(O)c(Cl)c1 (stereo not given),0.39,0.41,47,300,6470
CNc1cc(C(O)CNC(C)(C)C)ccc1O (stereo not given),0.95,0.02,115,30,560
CC(C)(C)NCC(O)c1ccc(O)c(C(N)=O)c1 (stereo not given),0.2,0.7,24,30,1030
CC(C)(C)NCC(O)c1cc(Cl)c(N)c(Cl)c1 (stereo not given),0.53,,64,1,
CC(C)(C)NCC(O)c1ccc(O)c(CO)c1 (stereo not given),1,,122,30,
CC(C)(C)NCC(O)c1cc(O)cc(O)c1 (stereo not given),0.41,,50,,
CC(C)(C)NCC(O)c1ccccc1 (stereo not given),0.35,0.46,43,100,2940
CC(C)(C)NCC(O)c1ccc(O)c(N)c1 (stereo not given),0.68,0.17,83,,2170

# From ChEMBL document CHEMBL1123159, “Quantitative evaluation of the beta 2-adrenoceptor intrinsic activity of N-tert-butylphenylethanolamines” (J Med Chem, 1986)
